Measured values published in PubChem BioAssay (NCI).
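Five concentrations, 48 hours, 96-well plates. Definition used: TGI = concentration required for complete inhibition of growth.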

Legend:
Test in all cases: DTP human tumour cell line panel, 48 h
A549 NSCLC = system: A549 NSCLC
MOLT-4 leukemia = system: MOLT-4 leukemia
SW-620 colon = system: SW-620 colon
786-0 renal = system: 786-0 renal
DLD-1 colon = system: DLD-1 colon
UO-31 renal = system: UO-31 renal
COLO 205 colon = system: COLO 205 colon
HL-60(TB) leukemia = system: HL-60(TB) leukemia
DMS 114 small cell lung = system: DMS 114 small cell lung
HCT-116 colon = system: HCT-116 colon
NCI-H23 lung = system: NCI-H23 lung
XF 498 CNS = system: XF 498 CNS
CAKI-1 renal = system: CAKI-1 renal
K-562 leukemia = system: K-562 leukemia
M14 melanoma = system: M14 melanoma
TK-10 renal = system: TK-10 renal
UACC-62 melanoma = system: UACC-62 melanoma
M19-MEL melanoma = system: M19-MEL melanoma
IGROV1 ovarian = system: IGROV1 ovarian
SF-268 CNS = system: SF-268 CNS
A498 renal = system: A498 renal
NCI-H522 lung = system: NCI-H522 lung
SK-MEL-2 melanoma = system: SK-MEL-2 melanoma
SK-OV-3 ovarian = system: SK-OV-3 ovarian
LOX IMVI melanoma = system: LOX IMVI melanoma
HOP-92 NSCLC = system: HOP-92 NSCLC
SNB-75 CNS = system: SNB-75 CNS
HT29 colon = system: HT29 colon
RPMI-8226 leukemia = system: RPMI-8226 leukemia
SNB-78 CNS = system: SNB-78 CNS
SN12C renal = system: SN12C renal
SK-MEL-28 melanoma = system: SK-MEL-28 melanoma
KM12 colon = system: KM12 colon
EKVX NSCLC = system: EKVX NSCLC
HCC-2998 colon = system: HCC-2998 colon
CCRF-CEM leukemia = system: CCRF-CEM leukemia
SK-MEL-5 melanoma = system: SK-MEL-5 melanoma
OVCAR-8 ovarian = system: OVCAR-8 ovarian
OVCAR-4 ovarian = system: OVCAR-4 ovarian
HOP-62 NSCLC = system: HOP-62 NSCLC
SNB-19 CNS = system: SNB-19 CNS
SF-539 CNS = system: SF-539 CNS
UACC-257 melanoma = system: UACC-257 melanoma
MALME-3M melanoma = system: MALME-3M melanoma
DMS 273 small cell lung = system: DMS 273 small cell lung
NCI-H226 lung = system: NCI-H226 lung
OVCAR-3 ovarian = system: OVCAR-3 ovarian
SR leukemia = system: SR leukemia
LXFL 529 NSCLC = system: LXFL 529 NSCLC
SF-295 CNS = system: SF-295 CNS

O=C1OC(Cl)C(N=P(c2ccccc2)(c2ccccc2)c2ccccc2)=C1Cl (stereo not given)
TGI (A549 NSCLC): > 100 µM
TGI (MOLT-4 leukemia): > 100 µM
TGI (SW-620 colon): > 100 µM
TGI (786-0 renal): > 100 µM
TGI (DLD-1 colon): > 100 µM
TGI (UO-31 renal): > 100 µM
TGI (COLO 205 colon): > 100 µM
TGI (HL-60(TB) leukemia): > 100 µM
TGI (DMS 114 small cell lung): > 100 µM
TGI (HCT-116 colon): > 100 µM
TGI (NCI-H23 lung): > 100 µM
TGI (XF 498 CNS): > 100 µM
TGI (CAKI-1 renal): > 100 µM
TGI (K-562 leukemia): > 100 µM
TGI (M14 melanoma): > 100 µM
TGI (TK-10 renal): > 100 µM
TGI (UACC-62 melanoma): > 100 µM
TGI (M19-MEL melanoma): > 100 µM
TGI (IGROV1 ovarian): > 100 µM
TGI (SF-268 CNS): > 100 µM
TGI (A498 renal): > 100 µM
TGI (NCI-H522 lung): > 100 µM
TGI (SK-MEL-2 melanoma): > 100 µM
TGI (SK-OV-3 ovarian): > 100 µM
TGI (LOX IMVI melanoma): > 100 µM
TGI (HOP-92 NSCLC): > 100 µM
TGI (SNB-75 CNS): 85.4 µM
TGI (HT29 colon): > 100 µM
TGI (RPMI-8226 leukemia): > 100 µM
TGI (SNB-78 CNS): > 100 µM
TGI (SN12C renal): > 100 µM
TGI (SK-MEL-28 melanoma): > 100 µM
TGI (KM12 colon): > 100 µM
TGI (EKVX NSCLC): > 100 µM
TGI (HCC-2998 colon): > 100 µM
TGI (CCRF-CEM leukemia): > 100 µM
TGI (SK-MEL-5 melanoma): > 100 µM
TGI (OVCAR-8 ovarian): > 100 µM
TGI (OVCAR-4 ovarian): > 100 µM
TGI (HOP-62 NSCLC): > 100 µM
TGI (SNB-19 CNS): > 100 µM
TGI (SF-539 CNS): > 100 µM
TGI (UACC-257 melanoma): > 100 µM
TGI (MALME-3M melanoma): > 100 µM
TGI (DMS 273 small cell lung): > 100 µM
TGI (NCI-H226 lung): > 100 µM
TGI (OVCAR-3 ovarian): > 100 µM
TGI (SR leukemia): > 100 µM
TGI (LXFL 529 NSCLC): > 100 µM
TGI (SF-295 CNS): > 100 µM
